Assay results reported in patent US9585871B2, “Method for treating and curing leishmaniosis using fexinidazole” (Merial Limited, priority 2013, dated 2017).

Columns and labels:
[1] = tested on: Leishmania donovani amastigotes grown in macrophages; settings: Wyllie S et al., 2012; cited from earlier work
[2] = Multiple dosing study in dogs: systemic exposure (plasma) to fexinidazole and its metabolites; type: in vivo, dog; settings: dog, in vivo, po, 800 mg/kg/day
Method: In an embodiment, the fexinidazole may be administered to the canine as an aqueous oral suspension, comprising 5% TWEEN 80 and 0.5% Methyl cellulose 400 cP (METHOCEL). Provided in this format, fexinidazole suspensions of 5, 20, and 80 mg fexinidazole/mL may be prepared such that 10 mL of each concentration contains 50, 200, and 800 mg fexinidazole, respectively.
Moreover, inventors expect that a wide variety of dosing regimens are now available to the skilled person to achieve the necessary and sufficient fexinidazole plasma levels. For example, and as further outlined in the Examples below, any dosing regimen that produces substantially similar fexinidazole plasma levels, as compared to those levels produced by giving the dogs about 60 mg/kg/day for about twenty-eight days, is expected to substantially or completely eliminate the Leishmania parasites. Table 1 presents the systemic fexinidazole exposure following dosing of dogs with 50, 200, and 800 mg/kg/day.

Row | AUC0-24 [2] | SMILES | activity against Leishmania donovani amastigotes grown in macrophages [1]
1 | – | Cn1c([N+](=O)[O-])cnc1COc1ccc(S(C)(=O)=O)cc1 [sulfone metabolite] | active
2 | 74.3 ± 14.4^(1) μg · hour/mL | Cn1c([N+](=O)[O-])cnc1COc1ccc([S+](C)[O-])cc1 (stereo not drawn) [sulfoxide metabolite] | active
